Measurements: patent US20260207578A1, “COMPOUND BASED ON SULFUR/OXYGEN SUBSTITUTED GLUTARIMIDE-BASED ISOINDOLINONE SKELETON AND USE THEREOF” (Gluetacs Therapeutics (Shanghai) Co., LTD., priority 2022, published 2026)

What was measured:
[1] = biological target: T1, human Cereblon WT GST-tagged protein (Homo sapiens, UniProt Q96SW2); experiment: CRBN-binding affinity, HTRF (CEREBLON BINDING kit); settings: displacement of Thalidomide-Re reagent, 3 hours at room temperature
T1 construct: purchased CISBIO 64BDCRBNPEH
Summary of the method: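 HTRF competition format: compound, GST-tagged wild-type human Cereblon, Thalidomide-Re tracer and GST Eu antibody were combined in PROTAC binding buffer. Binding was derived from emission at 620 nm relative to blank and solvent control wells.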

[2] = biological target: T2, IKZF1 (Homo sapiens, UniProt Q13422+Q96SW2); experiment: Western-blot assay, substrate protein in hPBMCs; assay type: cell-based; settings: hPBMC cells, 24 hours, tested at 50 nM and 500 nM, table does not say which
T2 construct: endogenous in cells; host or cells: human PBMCs (Milecell Biotechnologies)
Experimental: The effect of the compounds of the present disclosure on the expression of target proteins in cells was detected using conventional Western blot analysis.
Human peripheral blood mononuclear cells (hPBMCs) at a density of 1×10^6 cells/mL were thawed according to the PBMC Recovery Protocol (Milecell Biotechnologies Inc, Shanghai). The cells were then treated with the compounds of the present disclosure (including the compounds listed in Tables 1 and 2, and the Examples A1-A20 and 1-116 compounds) at concentrations of 50 nM and 500 nM.
Controls included a negative control (DMSO) and a positive control (the commercial immunomodulatory drug lenalidomide), both processed following the identical experimental protocol as the compounds of the present disclosure. After 24 hours of compounds treatment, cells were harvested and lysed in RIPA protein lysate containing phosphatase inhibitors on ice for 30-60 min, followed by centrifugation. The supernatant was aspirated as the extracted total cell protein. The protein concentration of the supernatant was determined using the conventional BCA (Bicinchoninic Acid) assay. The supernatant was then mixed with 4× SDS sample loading buffer, denatured at 95° C. for 5 minutes, and then subjected to SDS-PAGE electrophoresis on a polyacrylamide gel. Proteins were then transferred to a nitrocellulose (NC) membrane, blocked at room temperature for 1-2 h, and processed for antibody incubation and detection according to the manufacturer's instructions (Cell Signaling Technology).
Half-Maximal Degradation Concentration value (the drug concentration required for degrading proteins by 50%, abbreviated as DC50) reads method: comparing the grayscale values of Western blot bands from drug-treated samples with those from blank DMSO-treated controls, and identifying the drug concentration range at which the grayscale value is half that of the DMSO-treated control bands.
DC50 values can be calculated using ImageJ software to measure grayscale values of Western blot bands from drug-treated samples. The concentration-response curve is fitted to estimate the drug concentration corresponding to half the grayscale value.
Target protein remaining (%) refers to the percentage of target protein remaining in hPBMC cells after treatment with protein degrader compounds.
Calculation method for protein remaining (%): Use ImageJ software to measure grayscale values of Western blot bands from drug (protein degrader)-treated samples. The grayscale value of drug-treated bands is divided by that of internal control protein bands, and the resulting quotient is normalized to obtain the relative percentage of remaining target protein after protein degrader treatment.
Target protein degradation rate (%)=100%−target protein remaining (%).

[3] = biological target: T3, CK1α (Homo sapiens, UniProt P48729+Q96SW2); experiment: Western-blot assay, substrate protein in hPBMCs; assay type: cell-based; settings: hPBMC cells, 24 hours, tested at 50 nM and 500 nM, table does not say which
T3 construct: endogenous in cells; host or cells: human PBMCs (Milecell Biotechnologies)
Summary of the method: (§1)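 Protein levels read by Western blot of lysates from human PBMCs (1×10^6 cells/mL) treated 24 h. Percent remaining is target band over loading-control band, normalised to DMSO-treated cells; DC50 is the concentration halving DMSO-control band intensity, estimated by curve fit.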

[4] = biological target: T4, GSPT1 (Homo sapiens, UniProt P15170+Q96SW2); experiment: Western-blot assay, substrate protein in hPBMCs; assay type: cell-based; settings: hPBMC cells, 24 hours, tested at 50 nM and 500 nM, table does not say which
T4 construct: endogenous in cells; host or cells: human PBMCs (Milecell Biotechnologies)
Summary of the method: as §1

[5] = biological target: T5, Wee1 (Homo sapiens, UniProt P30291+Q96SW2); experiment: Western-blot assay, substrate protein in hPBMCs; assay type: cell-based; settings: hPBMC cells, 24 hours, tested at 50 nM and 500 nM, table does not say which
T5 construct: endogenous in cells; host or cells: human PBMCs (Milecell Biotechnologies)
Summary of the method: as §1

[6] = biological target: T6, IKZF2 (Homo sapiens, UniProt Q96SW2+Q9UKS7); experiment: Western-blot assay, substrate protein in hPBMCs; assay type: cell-based; settings: hPBMC cells, 24 hours, tested at 50 nM and 500 nM, table does not say which
T6 construct: endogenous in cells; host or cells: human PBMCs (Milecell Biotechnologies)
Summary of the method: as §1

T4 sequence (P15170 whole entry): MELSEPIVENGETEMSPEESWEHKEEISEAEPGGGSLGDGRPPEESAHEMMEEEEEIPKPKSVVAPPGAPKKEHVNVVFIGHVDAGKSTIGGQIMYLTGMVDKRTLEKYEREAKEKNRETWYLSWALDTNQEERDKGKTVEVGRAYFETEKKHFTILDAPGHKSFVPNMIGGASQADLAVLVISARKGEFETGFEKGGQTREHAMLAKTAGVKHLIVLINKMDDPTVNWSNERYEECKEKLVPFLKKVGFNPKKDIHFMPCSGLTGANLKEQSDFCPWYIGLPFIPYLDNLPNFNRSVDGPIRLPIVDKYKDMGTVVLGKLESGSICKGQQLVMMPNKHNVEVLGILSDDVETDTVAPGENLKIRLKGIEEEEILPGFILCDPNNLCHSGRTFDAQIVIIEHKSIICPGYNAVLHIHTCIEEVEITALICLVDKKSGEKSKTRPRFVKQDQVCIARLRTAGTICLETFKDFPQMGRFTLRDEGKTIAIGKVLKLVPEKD
T4 sequence (Q96SW2 whole entry): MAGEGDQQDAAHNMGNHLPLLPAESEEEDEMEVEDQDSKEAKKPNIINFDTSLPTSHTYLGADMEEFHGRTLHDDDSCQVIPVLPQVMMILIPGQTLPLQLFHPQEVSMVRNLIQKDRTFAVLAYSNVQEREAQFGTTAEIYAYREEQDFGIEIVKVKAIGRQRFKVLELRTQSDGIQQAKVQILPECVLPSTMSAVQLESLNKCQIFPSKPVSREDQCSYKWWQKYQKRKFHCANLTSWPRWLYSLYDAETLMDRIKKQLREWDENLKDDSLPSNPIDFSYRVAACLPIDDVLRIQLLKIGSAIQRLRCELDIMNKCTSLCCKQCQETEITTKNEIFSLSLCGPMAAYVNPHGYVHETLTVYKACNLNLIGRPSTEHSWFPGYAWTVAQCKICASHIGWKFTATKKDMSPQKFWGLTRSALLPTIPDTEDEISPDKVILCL
T4 sequence (Q16531 whole entry partner): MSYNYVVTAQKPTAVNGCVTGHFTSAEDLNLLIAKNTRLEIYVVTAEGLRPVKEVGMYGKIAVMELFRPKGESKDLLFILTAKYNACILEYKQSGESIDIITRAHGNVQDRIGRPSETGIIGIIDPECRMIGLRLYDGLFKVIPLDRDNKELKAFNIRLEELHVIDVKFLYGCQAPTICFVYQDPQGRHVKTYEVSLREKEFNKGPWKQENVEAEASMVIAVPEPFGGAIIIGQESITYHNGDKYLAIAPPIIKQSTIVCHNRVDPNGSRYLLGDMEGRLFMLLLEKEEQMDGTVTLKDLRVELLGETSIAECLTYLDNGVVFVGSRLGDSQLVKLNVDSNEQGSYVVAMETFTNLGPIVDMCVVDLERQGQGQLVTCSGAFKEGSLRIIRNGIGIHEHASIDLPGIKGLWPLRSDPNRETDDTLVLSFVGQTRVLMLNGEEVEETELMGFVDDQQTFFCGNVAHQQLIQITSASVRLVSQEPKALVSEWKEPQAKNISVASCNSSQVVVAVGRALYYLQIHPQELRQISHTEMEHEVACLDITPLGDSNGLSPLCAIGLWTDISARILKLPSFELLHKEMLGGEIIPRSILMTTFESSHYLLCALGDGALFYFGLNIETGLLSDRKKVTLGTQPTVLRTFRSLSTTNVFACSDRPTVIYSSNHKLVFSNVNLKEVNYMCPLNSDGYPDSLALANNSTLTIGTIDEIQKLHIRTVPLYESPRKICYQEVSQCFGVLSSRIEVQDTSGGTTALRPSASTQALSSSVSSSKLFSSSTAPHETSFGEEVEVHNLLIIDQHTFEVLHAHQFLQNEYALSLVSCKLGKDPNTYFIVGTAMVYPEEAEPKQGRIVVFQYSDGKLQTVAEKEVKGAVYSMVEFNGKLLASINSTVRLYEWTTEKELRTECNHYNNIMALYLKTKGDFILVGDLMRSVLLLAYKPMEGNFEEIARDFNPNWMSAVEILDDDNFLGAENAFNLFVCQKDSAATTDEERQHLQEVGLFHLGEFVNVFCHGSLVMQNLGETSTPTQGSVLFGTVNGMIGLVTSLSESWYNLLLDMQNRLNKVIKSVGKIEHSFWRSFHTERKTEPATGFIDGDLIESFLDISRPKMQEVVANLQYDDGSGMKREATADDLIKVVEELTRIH
T2 sequence (Q13422 whole entry): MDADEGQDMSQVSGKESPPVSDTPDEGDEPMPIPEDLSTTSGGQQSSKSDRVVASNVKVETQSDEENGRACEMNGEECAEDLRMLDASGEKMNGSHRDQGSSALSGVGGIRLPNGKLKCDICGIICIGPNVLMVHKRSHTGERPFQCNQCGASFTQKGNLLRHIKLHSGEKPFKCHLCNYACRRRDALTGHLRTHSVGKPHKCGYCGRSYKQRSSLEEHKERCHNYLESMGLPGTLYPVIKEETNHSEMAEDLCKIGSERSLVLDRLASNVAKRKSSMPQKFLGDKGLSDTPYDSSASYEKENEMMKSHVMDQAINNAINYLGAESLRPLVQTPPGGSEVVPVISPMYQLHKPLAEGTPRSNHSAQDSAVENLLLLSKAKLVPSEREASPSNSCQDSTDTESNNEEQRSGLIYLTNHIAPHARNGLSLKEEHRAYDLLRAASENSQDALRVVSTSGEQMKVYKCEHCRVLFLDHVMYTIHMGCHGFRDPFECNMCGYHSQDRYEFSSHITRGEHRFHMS
T2 sequence (Q96SW2 whole entry): as the sequence (Q96SW2 whole entry) above
T2 sequence (Q16531 whole entry partner): as the sequence (Q16531 whole entry partner) above
T1 sequence (Q96SW2 whole entry): as the sequence (Q96SW2 whole entry) above
T5 sequence (P30291 whole entry): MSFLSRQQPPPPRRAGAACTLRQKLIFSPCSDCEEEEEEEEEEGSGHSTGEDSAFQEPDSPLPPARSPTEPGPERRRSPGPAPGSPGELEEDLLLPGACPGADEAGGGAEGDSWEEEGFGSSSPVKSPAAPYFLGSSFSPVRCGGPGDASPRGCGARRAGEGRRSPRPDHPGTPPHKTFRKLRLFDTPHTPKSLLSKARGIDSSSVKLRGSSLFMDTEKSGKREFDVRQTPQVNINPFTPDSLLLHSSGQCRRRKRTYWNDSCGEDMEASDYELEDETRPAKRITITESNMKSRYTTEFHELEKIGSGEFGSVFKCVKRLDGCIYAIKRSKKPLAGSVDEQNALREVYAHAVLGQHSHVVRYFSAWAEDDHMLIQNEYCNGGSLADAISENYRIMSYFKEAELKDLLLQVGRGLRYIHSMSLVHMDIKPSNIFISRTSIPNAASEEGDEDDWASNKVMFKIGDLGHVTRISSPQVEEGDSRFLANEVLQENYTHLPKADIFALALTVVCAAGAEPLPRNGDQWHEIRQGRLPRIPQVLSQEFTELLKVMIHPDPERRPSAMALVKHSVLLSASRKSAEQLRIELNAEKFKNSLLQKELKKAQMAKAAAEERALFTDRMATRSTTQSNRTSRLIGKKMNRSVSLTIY
T5 sequence (Q96SW2 whole entry): as the sequence (Q96SW2 whole entry) above
T5 sequence (Q16531 whole entry partner): as the sequence (Q16531 whole entry partner) above
T6 sequence (Q9UKS7 whole entry): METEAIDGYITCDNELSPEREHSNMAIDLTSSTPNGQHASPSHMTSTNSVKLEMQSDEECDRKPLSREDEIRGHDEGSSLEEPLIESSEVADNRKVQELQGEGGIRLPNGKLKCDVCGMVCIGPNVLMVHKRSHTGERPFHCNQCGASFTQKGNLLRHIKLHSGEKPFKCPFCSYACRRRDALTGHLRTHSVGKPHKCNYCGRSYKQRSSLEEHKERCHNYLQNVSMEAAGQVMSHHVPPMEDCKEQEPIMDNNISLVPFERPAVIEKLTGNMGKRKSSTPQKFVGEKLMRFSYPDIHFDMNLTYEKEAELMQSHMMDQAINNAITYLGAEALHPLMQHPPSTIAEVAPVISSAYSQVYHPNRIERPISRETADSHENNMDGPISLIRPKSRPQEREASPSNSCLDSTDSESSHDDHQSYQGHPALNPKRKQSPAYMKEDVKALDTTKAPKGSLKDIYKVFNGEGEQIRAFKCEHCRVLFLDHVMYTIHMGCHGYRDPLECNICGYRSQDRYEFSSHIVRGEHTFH
T6 sequence (Q96SW2 whole entry): as the sequence (Q96SW2 whole entry) above
T6 sequence (Q16531 whole entry partner): as the sequence (Q16531 whole entry partner) above
T3 sequence (P48729 whole entry): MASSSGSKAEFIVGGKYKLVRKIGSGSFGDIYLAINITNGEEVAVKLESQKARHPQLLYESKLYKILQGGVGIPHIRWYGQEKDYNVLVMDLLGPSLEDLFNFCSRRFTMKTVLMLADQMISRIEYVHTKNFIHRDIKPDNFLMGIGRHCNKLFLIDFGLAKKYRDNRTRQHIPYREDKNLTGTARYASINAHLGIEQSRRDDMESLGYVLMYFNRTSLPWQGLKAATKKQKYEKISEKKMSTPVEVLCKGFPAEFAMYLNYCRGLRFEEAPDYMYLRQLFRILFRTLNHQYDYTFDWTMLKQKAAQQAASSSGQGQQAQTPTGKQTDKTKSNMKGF
T3 sequence (Q96SW2 whole entry): as the sequence (Q96SW2 whole entry) above
T3 sequence (Q16531 whole entry partner): as the sequence (Q16531 whole entry partner) above

SMILES | IC50 [1] [nM] | substrate protein remaining % [2] | substrate protein remaining % [3] | substrate protein remaining % [4] | substrate protein remaining % [5] | substrate protein remaining % [6]
CC1(C)CCC(CN2CC(Sc3ccc4c(c3)CN(C3CCC(=O)NC3=O)C4=O)C2)=C(c2ccc(Cl)cc2)C1 (stereo not drawn) [GT-03464, 3-(5-((1-((4′-chloro-5,5-dimethyl-3,4,5,6-tetrahydro-[1,1′-biphenyl]-2-yl)methyl)azetidin-3-yl)thio)-1-oxoisoindolin-2-yl)piperidine-2,6-dione] | < 500 | A (0%≤ substrate protein remaining % ≤80%) | A (0%≤ substrate protein remaining % ≤80%) | A (0%≤ substrate protein remaining % ≤80%) | A (0%≤ substrate protein remaining % ≤80%) | –
CC1(C)CCC(C(=O)N2CC(Sc3ccc4c(c3)CN(C3CCC(=O)NC3=O)C4=O)C2)=C(c2ccc(Cl)cc2)C1 (stereo not drawn) [GT-06137, 3-(5-((1-(4′-chloro-5,5-dimethyl-3,4,5,6-tetrahydro-[1,1′-biphenyl]-2-carbonyl)azetidin-3-yl)thio)-1-oxoisoindolin-2-yl)piperidine-2,6-dione] | 500 to 1000 | A (0%≤ substrate protein remaining % ≤80%) | – | A (0%≤ substrate protein remaining % ≤80%) | A (0%≤ substrate protein remaining % ≤80%) | –
O=C1CCC(N2Cc3cc(SC4CCN(C(c5ccccc5)c5ccccc5)C4)ccc3C2=O)C(=O)N1 (stereo not drawn) [GT-06196, 3-(5-((1-benzhydrylpyrrolidin-3-yl)thio)-1-oxoisoindolin-2-yl)piperidine-2,6-dione] | 500 to 1000 | – | A (0%≤ substrate protein remaining % ≤80%) | A (0%≤ substrate protein remaining % ≤80%) | – | A (0%≤ substrate protein remaining % ≤80%)
O=C1CCC(N2Cc3cc(SC4CN(Cc5cccc(-c6ccc(Cl)cc6)c5)C4)ccc3C2=O)C(=O)N1 (stereo not drawn) [GT-06225, 3-(5-((1-((4′-chloro-[1,1′-biphenyl]-3-yl)methyl)azetidin-3-yl)thio)-1-oxoisoindolin-2-yl)piperidine-2,6-dione] | < 500 | A (0%≤ substrate protein remaining % ≤80%) | – | A (0%≤ substrate protein remaining % ≤80%) | – | –
O=C1CCC(N2Cc3cc(SC4CN(Cc5ccc(-c6ccc(Cl)cc6)cc5)C4)ccc3C2=O)C(=O)N1 (stereo not drawn) [GT-06226, 3-(5-((1-((4′-chloro-[1,1′-biphenyl]-4-yl)methyl)azetidin-3-yl)thio)-1-oxoisoindolin-2-yl)piperidine-2,6-dione] | 500 to 1000 | A (0%≤ substrate protein remaining % ≤80%) | – | – | A (0%≤ substrate protein remaining % ≤80%) | –
O=C1CCC(N2Cc3cc(OC4CN(C(c5cccc(F)c5)c5cccc(F)c5)C4)ccc3C2=O)C(=O)N1 (stereo not drawn) [GT-06352, 3-(5-((1-(bis(3-fluorophenyl)methyl)azetidin-3-yl)oxy)-1-oxoisoindolin-2-yl)piperidine-2,6-dione] | 500 to 1000 | A (0%≤ substrate protein remaining % ≤80%) | A (0%≤ substrate protein remaining % ≤80%) | A (0%≤ substrate protein remaining % ≤80%) | – | –
O=C1CCC(N2Cc3cc(SC4CN(C(c5ccccc5)c5ccccn5)C4)ccc3C2=O)C(=O)N1 (stereo not drawn) [GT-06518, 3-(1-oxo-5-((1-(phenyl(pyridin-2-yl)methyl)azetidin-3-yl)thio)isoindolin-2-yl)piperidine-2,6-dione] | < 500 | – | A (0%≤ substrate protein remaining % ≤80%) | A (0%≤ substrate protein remaining % ≤80%) | – | A (0%≤ substrate protein remaining % ≤80%)
O=C1CCC(N2Cc3cc(OC4CN(C(c5ccccc5)c5ccccn5)C4)ccc3C2=O)C(=O)N1 (stereo not drawn) [GT-06559, 3-(1-oxo-5-((1-(phenyl(pyridin-2-yl)methyl)azetidin-3-yl)oxy)isoindolin-2-yl)piperidine-2,6-dione] | < 500 | – | A (0%≤ substrate protein remaining % ≤80%) | A (0%≤ substrate protein remaining % ≤80%) | A (0%≤ substrate protein remaining % ≤80%) | A (0%≤ substrate protein remaining % ≤80%)
O=C1CCC(N2Cc3cc(OC4CN(Cc5ccc(-c6ccco6)s5)C4)ccc3C2=O)C(=O)N1 (stereo not drawn) [GT-06562, 3-(5-((1-((5-(furan-2-yl)thiophen-2-yl)methyl)azetidin-3-yl)oxy)-1-oxoisoindolin-2-yl)piperidine-2,6-dione] | < 500 | A (0%≤ substrate protein remaining % ≤80%) | – | A (0%≤ substrate protein remaining % ≤80%) | A (0%≤ substrate protein remaining % ≤80%) | –
CC1(C)CCC(CN2CC(Sc3cccc4c3C(=O)N(C3CCC(=O)NC3=O)C4)C2)=C(c2ccc(Cl)cc2)C1 (stereo not drawn) [GT-06812, 3-(7-((1-((4′-chloro-5,5-dimethyl-3,4,5,6-tetrahydro-[1,1′-biphenyl]-2-yl)methyl)azetidin-3-yl)thio)-1-oxoisoindolin-2-yl)piperidine-2,6-dione] | 1000 to 1900 | A (0%≤ substrate protein remaining % ≤80%) | – | A (0%≤ substrate protein remaining % ≤80%) | A (0%≤ substrate protein remaining % ≤80%) | –
CC1(C)CCC(C(=O)N2CCC(Oc3ccc4c(c3)CN(C3CCC(=O)NC3=O)C4=O)C2)=C(c2ccc(Cl)cc2)C1 (stereo not drawn) [GT-06816, 3-(5-((1-(4′-chloro-5,5-dimethyl-3,4,5,6-tetrahydro-[1,1′-biphenyl]-2-carbonyl)pyrrolidin-3-yl)oxy)-1-oxoisoindolin-2-yl)piperidine-2,6-dione] | < 500 | – | A (0%≤ substrate protein remaining % ≤80%) | A (0%≤ substrate protein remaining % ≤80%) | A (0%≤ substrate protein remaining % ≤80%) | A (0%≤ substrate protein remaining % ≤80%)
O=C1CCC(N2Cc3cc(SC4CC5(CCN(C(c6ccccc6)c6ccccc6)CC5)C4)ccc3C2=O)C(=O)N1 (stereo not drawn) [GT-06920, 3-(5-((7-benzhydryl-7-azaspiro[3.5]nonan-2-yl)thio)-1-oxoisoindolin-2-yl)piperidine-2,6-dione] | < 500 | A (0%≤ substrate protein remaining % ≤80%) | – | – | A (0%≤ substrate protein remaining % ≤80%) | –
CC1(C)CCC(C(=O)N2C[C@H]3CC(Oc4ccc5c(c4)CN(C4CCC(=O)NC4=O)C5=O)C[C@@H]3C2)=C(c2ccc(Cl)cc2)C1 (stereo partly drawn) [GT-07025, 3-(5-(((3aS,6aS)-2-(4′-chloro-5,5-dimethyl-3,4,5,6-tetrahydro-[1,1′-biphenyl]-2-carbonyl)octahydro-cyclopenta[c]pyrrol-5-yl)oxy)-1-oxoisoindolin-2-yl)piperidine-2,6-dione] | < 500 | – | A (0%≤ substrate protein remaining % ≤80%) | – | – | A (0%≤ substrate protein remaining % ≤80%)
